What was measured:
ROCK-I = ROCK-I (Homo sapiens, UniProt Q13464); test: ROCK-I biochemical counter-screen; settings: Table 6; read-out: Biochemical Inhibition IC50 (nM) ROCK-I
P450 3A4 = P450 3A4 (Homo sapiens, UniProt P08684); test: P450 inhibition at 10 μM; type: in vitro ADME
[1] = Microsomal stability, human liver microsomes; type: in vitro ADME
[2] = test system: cofilin phosphorylation in A7r5 cells; test: In-cell Western assay of cofilin phosphorylation in A7r5 cells; type: cell-based; settings: A7R5, A7r5 cells; read-out: Cofilin Phosphorylation In A7r5 Cells (IC50)
Protocol: A7r5 (15,000 cells/well) were plated in a clear-bottomed Packard View black 96-well plate in 100 μl of 10% FBS DMEM:F12 medium and were allowed to attach overnight. The next day, the cells were serum starved in 1% FBS DMEM medium for 2 hr and then treated with the compounds for 1 hr. […] Next day, they were washed twice with PBS-0.1% Tween 20 (PBST) washing solution for 5 min each at room temperature on the orbital shaker, followed by one wash with Licor Blocking Buffer containing 0.05% Tween-20 for 5 min on the shaker at RT. The cells were then incubated with secondary antibody goat anti-rabbit IR800 (1:500 dilution) for 1 hr at RT in the dark (covered the plate with foil) in Licor blocking buffer-containing Tween-20. Following this, cells were washed twice with PBST for 5 min each at room temperature and then once with Licor blocking buffer-containing 0.05% Tween-20. The wells were then incubated with ToPro 3 stain (nucleic acid staining), diluted 1:4000 in Licor blocking buffer or Licor blocking buffer with 0.05% Tween-20 for 30 min at room temperature in the dark. Finally the plates were washed twice with PBS and analyzed using the Odyssey LICOR Infrared Scanner.

[3] = Microsomal stability, rat liver microsomes; type: in vitro ADME; settings: rat liver microsomes
[4] = test system: RVFV (rift valley fever virus); type: cell-based; settings: Vero cells
HIV-1(AD8) = type: cell-based; settings: non-toxic dosages
ROCK2 = molecular target: T1, ROCK2 (Homo sapiens, UniProt O75116); test: Kinase profiling at 1 μM (Reaction Biology); type: biochemical; settings: ATP 10 μM
T1 construct: purchased Reaction Biology Corporation
T1 sequence (O75116 whole entry): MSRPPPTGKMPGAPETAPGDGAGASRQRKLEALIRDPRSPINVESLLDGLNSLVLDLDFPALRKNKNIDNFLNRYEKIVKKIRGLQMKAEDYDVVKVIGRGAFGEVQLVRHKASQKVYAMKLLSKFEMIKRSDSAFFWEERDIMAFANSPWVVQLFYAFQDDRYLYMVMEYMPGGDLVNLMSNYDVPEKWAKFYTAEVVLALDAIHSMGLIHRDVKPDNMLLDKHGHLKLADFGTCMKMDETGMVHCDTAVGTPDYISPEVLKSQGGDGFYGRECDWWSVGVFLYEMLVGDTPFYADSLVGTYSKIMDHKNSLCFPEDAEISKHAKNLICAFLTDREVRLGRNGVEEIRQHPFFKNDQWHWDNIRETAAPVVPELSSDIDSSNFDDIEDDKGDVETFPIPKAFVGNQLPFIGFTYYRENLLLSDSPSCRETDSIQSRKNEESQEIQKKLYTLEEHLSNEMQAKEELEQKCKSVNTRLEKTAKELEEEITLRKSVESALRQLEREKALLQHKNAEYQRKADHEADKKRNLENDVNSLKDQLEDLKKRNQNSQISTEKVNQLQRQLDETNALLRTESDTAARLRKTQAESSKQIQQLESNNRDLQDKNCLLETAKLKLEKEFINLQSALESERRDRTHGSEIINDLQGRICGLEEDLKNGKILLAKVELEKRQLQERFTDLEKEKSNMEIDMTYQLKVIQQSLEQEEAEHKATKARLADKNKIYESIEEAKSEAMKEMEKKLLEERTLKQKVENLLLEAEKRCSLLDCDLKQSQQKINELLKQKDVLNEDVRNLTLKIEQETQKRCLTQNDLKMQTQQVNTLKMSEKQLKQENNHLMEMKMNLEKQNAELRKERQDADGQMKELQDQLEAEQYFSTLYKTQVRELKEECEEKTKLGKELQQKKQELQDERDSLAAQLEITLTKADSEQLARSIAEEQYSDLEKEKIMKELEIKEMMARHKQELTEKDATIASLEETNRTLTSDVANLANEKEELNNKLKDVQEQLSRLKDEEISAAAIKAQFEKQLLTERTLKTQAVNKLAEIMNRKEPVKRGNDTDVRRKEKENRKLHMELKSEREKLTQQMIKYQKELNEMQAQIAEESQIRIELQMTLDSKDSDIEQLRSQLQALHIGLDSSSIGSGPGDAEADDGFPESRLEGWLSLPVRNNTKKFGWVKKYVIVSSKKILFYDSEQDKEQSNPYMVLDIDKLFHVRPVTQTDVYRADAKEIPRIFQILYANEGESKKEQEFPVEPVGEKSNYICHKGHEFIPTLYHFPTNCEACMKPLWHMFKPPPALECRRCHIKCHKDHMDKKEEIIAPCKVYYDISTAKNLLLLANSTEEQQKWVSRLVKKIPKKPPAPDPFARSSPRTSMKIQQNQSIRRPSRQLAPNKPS
Protocol: (§1) Profiling was carried out at Reaction Biology Corporation following a protocol described at its website: http://www.reactionbiology.com/webapps/site/. The % data were the average from two determinations. ATP concentration used: 10 μM; Staurosporine was used as the positive control.
(§2) Biochemical assays for all Limk inhibitors and kinase profiling were carried out in Reaction Biology Corporation and followed the protocols described on its website. […] Compounds were tested at 1 μM with duplicate experiments in profiling assays. […] Reactions were carried out at 10 μM ATP, 1 μM substrate cofilin, and 50 nM Limk1 (final concentrations).

ZIPK/DAPK3 = molecular target: T2, ZIPK/DAPK3 (Homo sapiens, UniProt O43293); test: Kinase profiling at 1 μM (Reaction Biology); type: biochemical; settings: ATP 10 μM
T2 construct: purchased Reaction Biology Corporation
T2 sequence (O43293 whole entry): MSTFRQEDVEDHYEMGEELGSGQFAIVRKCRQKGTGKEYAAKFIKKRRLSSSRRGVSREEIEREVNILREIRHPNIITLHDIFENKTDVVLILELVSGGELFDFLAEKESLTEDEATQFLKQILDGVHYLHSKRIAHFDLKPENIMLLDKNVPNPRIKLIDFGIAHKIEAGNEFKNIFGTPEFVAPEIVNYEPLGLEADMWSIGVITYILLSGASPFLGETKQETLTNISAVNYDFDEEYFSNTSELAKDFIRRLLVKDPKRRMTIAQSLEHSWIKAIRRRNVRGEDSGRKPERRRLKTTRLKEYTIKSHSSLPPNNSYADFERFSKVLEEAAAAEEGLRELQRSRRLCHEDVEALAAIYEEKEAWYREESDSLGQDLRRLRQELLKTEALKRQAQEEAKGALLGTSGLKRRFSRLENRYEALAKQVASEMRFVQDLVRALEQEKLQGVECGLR
Protocol: as §1, §2

ERK2/MAPK1 = molecular target: T3, ERK2/MAPK1 (Homo sapiens, UniProt P28482); test: Kinase profiling at 1 μM (Reaction Biology); type: biochemical; settings: ATP 10 μM
T3 construct: purchased Reaction Biology Corporation
T3 sequence (P28482 whole entry): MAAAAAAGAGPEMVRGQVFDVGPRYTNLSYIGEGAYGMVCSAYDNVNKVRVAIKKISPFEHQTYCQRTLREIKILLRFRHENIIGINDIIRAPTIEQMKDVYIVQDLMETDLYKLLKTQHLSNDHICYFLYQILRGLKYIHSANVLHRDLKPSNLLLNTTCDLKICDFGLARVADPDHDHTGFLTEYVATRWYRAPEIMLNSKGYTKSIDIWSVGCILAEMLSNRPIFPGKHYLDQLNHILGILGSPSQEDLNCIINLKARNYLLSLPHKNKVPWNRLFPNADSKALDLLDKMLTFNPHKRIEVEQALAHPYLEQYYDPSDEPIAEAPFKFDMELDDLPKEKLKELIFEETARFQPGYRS
Protocol: as §1, §2

BRAF = molecular target: T4, BRAF (Homo sapiens, UniProt P15056); test: Kinase profiling at 1 μM (Reaction Biology); type: biochemical; settings: ATP 10 μM
T4 construct: purchased Reaction Biology Corporation
Protocol: as §1, §2

BTK = molecular target: T5, BTK (Homo sapiens, UniProt Q06187); test: Kinase profiling at 1 μM (Reaction Biology); type: biochemical; settings: ATP 10 μM
T5 construct: purchased Reaction Biology Corporation
T5 sequence (Q06187 whole entry): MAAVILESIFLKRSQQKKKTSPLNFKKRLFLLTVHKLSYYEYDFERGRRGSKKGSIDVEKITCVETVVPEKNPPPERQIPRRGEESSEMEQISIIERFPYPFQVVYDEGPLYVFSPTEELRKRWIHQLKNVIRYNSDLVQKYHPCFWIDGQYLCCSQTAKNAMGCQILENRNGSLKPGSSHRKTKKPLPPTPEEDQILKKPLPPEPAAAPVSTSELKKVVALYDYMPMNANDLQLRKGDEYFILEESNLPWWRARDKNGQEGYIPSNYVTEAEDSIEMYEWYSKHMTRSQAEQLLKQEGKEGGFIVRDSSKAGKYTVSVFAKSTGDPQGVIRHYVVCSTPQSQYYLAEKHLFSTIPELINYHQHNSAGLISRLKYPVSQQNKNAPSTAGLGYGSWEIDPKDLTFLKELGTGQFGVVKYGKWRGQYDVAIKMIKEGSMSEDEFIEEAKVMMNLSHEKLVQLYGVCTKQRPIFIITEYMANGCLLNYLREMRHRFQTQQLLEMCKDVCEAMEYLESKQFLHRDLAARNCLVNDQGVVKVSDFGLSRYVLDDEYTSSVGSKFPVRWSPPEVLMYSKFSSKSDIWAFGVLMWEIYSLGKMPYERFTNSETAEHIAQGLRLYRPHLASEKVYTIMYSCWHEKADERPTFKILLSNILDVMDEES
Protocol: as §1, §2

resting CD4 T cells = test: SDF-1-mediated actin polymerization, FITC-phalloidin staining; type: cell-based, human; settings: pre-treatment of resting CD4 T cells
Protocol: FIG. 10. Chemical and Biochemical characterization of R10015. a, Chemical structure of R10015 and its docking into the crystal structure of LIMK1 (PDB ID 3S95, Chain A). […] CEM-SS T cells treated with R10015 (100 μM) for a time course, and the phosphorylation of cofilin, LIMK, and PAK1/2 were measured by Western Blot. Levels of each protein or GAPDH were also measured for loading control. d, R10015 inhibits Jurkat T cell chemotaxis in responding to SDF-1. e, R10015. f, R10015 inhibits chemotactic actin activity. Resting CD4 T cells were treated with R10015, and then exposed to SDF-1 for a time course. Actin polymerization were measured by FITC-phalloidin staining. g, the relative intensity of F-actin staining was also plotted.
F-actin staining using phalloidin-FITC (Sigma) was carried out as described previously. Briefly, each staining was carried out using 1×10^6 cells. Cells were pelleted, fixed, and permeabilized with CytoPerm/Cytofix buffer (BD Biosciences) for 20 min at room temperature and washed with cold Perm/Wash buffer (BD Biosciences) twice, followed by staining with 5 μl of 0.3 mM FITC-labeled phalloidin (Sigma) for 30 min on ice in the dark. Cells were washed twice with cold Perm/Wash buffer, then were resuspended in 1% paraformaldehyde, and analyzed on a FACSCalibur (BD Biosciences).

[5] = test system: surface CD4 and CXCR4 on CEM-SS T cells; test: Surface staining of CD4 and CXCR4; type: cell-based, human
Protocol: FIG. 11. R10015 inhibits HIV-1 DNA synthesis, nuclear migration, and virion release. a, Effects of R10015 on surface CD4 and CXCR4 expression. […] CEM-SS T cells were treated with R10015, and then infected with BlaM-Vpr tagged HIV-1(NL4-3) or HIV-1(VSV-G) to measure viral entry. c. R10015 inhibits viral DNA synthesis. CEM-SS T cells were treated with R10015 for 1 hour, and then infected with a single-cycle HIV-1(Env) for 2 hours in the presence of R10015. Following infection, cells were washed to remove HIV-1 and R10015. Viral DNA synthesis was measured by real-time PCR. d. R10015 inhibits 2-LTR circle DNA formation. Cells were similar treated with R10015 and infected. 2-TLR circles were quantified by real-time PCR. e. R10015 inhibits virion release. Cells were infected with HIV-1(Env) for 2 hours, washed, incubated for 12 hours, and then treated with R10015. Virion release was quantified by measuring p24 in the supernatant.
Cells were stained with FITC-labeled monoclonal antibody against human CD4 (clone PRA-T4) or CXCR4 (clone 12G5) (BD Biosciences). Cells were stained on ice in PBS+0.1% BSA for 30 minutes, washed with cold PBS-0.5% BSA, and then analyzed on a FACSCalibur (BD Biosciences).

Limk1 = Limk1 (Homo sapiens, UniProt P53667); test: Kinase profiling at 1 μM (Reaction Biology); type: biochemical; set-up: His; purchased Reaction Biology Corporation; host or cells: insect cells; settings: ATP 10 μM
Sequence of Limk1 (P53667 285-638): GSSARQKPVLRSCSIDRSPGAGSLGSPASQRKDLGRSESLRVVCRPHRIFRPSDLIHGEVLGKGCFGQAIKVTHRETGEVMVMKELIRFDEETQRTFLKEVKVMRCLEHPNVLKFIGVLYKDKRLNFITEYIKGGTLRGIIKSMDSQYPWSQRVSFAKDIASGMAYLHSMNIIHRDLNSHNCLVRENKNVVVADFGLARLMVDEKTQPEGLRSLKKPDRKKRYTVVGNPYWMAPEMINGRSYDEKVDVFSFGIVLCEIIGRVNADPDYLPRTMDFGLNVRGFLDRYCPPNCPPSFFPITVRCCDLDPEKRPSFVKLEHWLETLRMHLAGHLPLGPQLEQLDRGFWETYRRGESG
Protocol: as §1, §2

HIV-1(NL4-3) = type: cell-based; settings: non-toxic dosages

Sequence of P450 3A4 (P08684 whole entry): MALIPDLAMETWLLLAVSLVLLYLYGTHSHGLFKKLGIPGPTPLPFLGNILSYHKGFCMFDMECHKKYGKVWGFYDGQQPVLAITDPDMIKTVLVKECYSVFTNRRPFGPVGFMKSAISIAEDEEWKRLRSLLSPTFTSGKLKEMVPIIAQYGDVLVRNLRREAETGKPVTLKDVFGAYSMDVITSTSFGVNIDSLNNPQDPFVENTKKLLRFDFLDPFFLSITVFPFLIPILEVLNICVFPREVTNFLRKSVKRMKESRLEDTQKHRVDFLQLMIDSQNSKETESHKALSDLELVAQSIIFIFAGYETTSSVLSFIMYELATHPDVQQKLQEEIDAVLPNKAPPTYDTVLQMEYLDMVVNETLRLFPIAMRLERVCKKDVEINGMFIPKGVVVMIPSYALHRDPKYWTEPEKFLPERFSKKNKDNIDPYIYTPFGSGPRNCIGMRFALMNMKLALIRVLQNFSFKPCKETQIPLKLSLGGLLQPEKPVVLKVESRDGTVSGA
Sequence of ROCK-I (Q13464 whole entry, species assumed): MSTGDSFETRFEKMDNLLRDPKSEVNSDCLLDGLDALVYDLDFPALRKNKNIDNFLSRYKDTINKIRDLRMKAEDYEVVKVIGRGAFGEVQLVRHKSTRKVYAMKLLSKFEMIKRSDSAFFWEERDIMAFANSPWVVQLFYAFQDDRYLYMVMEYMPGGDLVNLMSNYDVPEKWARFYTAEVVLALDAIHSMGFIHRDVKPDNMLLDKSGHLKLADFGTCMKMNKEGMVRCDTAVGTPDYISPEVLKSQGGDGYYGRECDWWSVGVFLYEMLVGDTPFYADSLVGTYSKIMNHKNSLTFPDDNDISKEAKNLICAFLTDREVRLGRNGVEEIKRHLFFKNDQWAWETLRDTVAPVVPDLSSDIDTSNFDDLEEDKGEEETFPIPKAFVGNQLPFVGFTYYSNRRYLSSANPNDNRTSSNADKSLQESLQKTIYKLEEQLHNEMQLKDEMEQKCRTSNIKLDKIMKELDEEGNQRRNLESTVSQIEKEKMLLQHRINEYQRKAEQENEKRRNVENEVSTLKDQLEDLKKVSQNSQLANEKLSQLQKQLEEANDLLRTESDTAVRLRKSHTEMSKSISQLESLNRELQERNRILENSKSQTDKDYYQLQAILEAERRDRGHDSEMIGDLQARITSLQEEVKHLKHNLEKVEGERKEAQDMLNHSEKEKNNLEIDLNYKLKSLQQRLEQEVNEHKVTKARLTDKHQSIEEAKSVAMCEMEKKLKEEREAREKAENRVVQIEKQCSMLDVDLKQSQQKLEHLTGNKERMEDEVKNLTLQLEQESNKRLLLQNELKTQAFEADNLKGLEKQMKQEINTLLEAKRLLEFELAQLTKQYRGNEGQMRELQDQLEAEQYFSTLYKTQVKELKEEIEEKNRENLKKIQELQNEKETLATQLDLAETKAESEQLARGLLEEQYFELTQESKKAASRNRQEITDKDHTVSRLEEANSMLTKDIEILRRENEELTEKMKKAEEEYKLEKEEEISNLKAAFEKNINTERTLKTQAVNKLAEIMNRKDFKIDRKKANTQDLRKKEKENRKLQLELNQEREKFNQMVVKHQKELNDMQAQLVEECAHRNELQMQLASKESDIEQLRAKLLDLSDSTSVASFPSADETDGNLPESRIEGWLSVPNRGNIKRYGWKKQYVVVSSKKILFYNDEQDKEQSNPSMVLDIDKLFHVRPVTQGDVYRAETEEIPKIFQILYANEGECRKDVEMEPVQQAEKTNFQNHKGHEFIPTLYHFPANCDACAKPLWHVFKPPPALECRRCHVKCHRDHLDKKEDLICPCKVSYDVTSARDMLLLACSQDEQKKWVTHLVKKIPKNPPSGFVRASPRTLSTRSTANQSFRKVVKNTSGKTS

SMILES	IC50 (ROCK-I) [nM]	P450 % inh. at 10 μM 3A4 (P450 3A4) [%]	Microsomal Stability t1/2 (min) Human [1] [min]	IC50 [2] [µM]	Microsomal Stability t1/2 (min) Rat [3] [min]	RVFV infection [4]	R5 viral infection of memory CD4 T cells (HIV-1(AD8))	activity at 1 µM (ROCK2) [%]	activity at 1 µM (ZIPK/DAPK3) [%]	activity at 1 µM (ERK2/MAPK1) [%]	activity at 1 µM (BRAF) [%]	activity at 1 µM (BTK) [%]	SDF-1-mediated actin polymerization (resting CD4 T cells)	surface expression of CD4 and CXCR4 ([5]; 1 hour treatment)	surface density of CD4 ([5]; prolonged treatment (4 hours))	activity at 1 µM (Limk1) [%]	X4 viral infection of blood resting CD4 T cells (HIV-1(NL4-3))
Cc1c[nH]c2ncnc(-c3ccc(NC(=O)N(CCO)c4ccccc4)cc3)c12 [Compound 18b, 1-(2-Hydroxyethyl)-3-(4-(5-methyl-7H-pyrrolo[2,3-d]pyrimidin-4-yl)phenyl)-1-phenylurea]	5540	13	87	0.47	30												
COC(=O)c1ccc2[nH]c(C3CCN(c4ncnc5[nH]cc(Cl)c45)CC3)nc2c1 [Compound R10015, Methyl 2-(1-(5-chloro-7H-pyrrolo[2,3-d]pyrimidin-4-yl)piperidin-4-yl)-1Hbenzo[d]imidazole-5-carboxylate]						inhibited	inhibition	29.5	98.5	87.2	91.9	90.2	markedly depressed	did not alter	slightly decreased	6.4	inhibition
